Our source for the IC50 values is patent US12384789B2, “Compounds for treating Huntington's disease” (PTC Therapeutics, Inc., priority 2017, dated 2025).

Structures are written as SMILES.

The experiment relates to Endogenous Huntingtin Protein. The experiment is described as follows: Endogenous Huntingtin Protein Assay (Meso Scale Discovery ELISA-based electrochemiluminescence). Type of experiment: cell-based. The settings on record: MSD electrochemiluminescence, Table 1. As for the experimental part: Compounds of Formula (I) were tested using the Meso Scale Discovery (MSD) Assay provided in International Application No. PCT/US2016/066042, filed on Dec. 11, 2016 and claiming priority to United States Provisional Application U.S. 62/265,652 filed on Dec. 10, 2015, the entire contents of which are incorporated herein by reference.
The Endogenous Huntingtin Protein assay used in Example 1 was developed using the ELISA-based MSD electrochemiluminescence assay platform.
Endogenous Huntingtin Protein Assay
Meso Scale Discovery (MSD) 96-well or 384-well plates were coated overnight at 4° C. with MW1 (expanded polyglutamine) or MAB2166 monoclonal antibody (for capture) at a concentration of 1 μg/mL in PBS (30 μL per well). Plates were then washed three times with 300 μL wash buffer (0.05% Tween-20 in PBS) and blocked (100 μL blocking buffer; 5% BSA in PBS) for 4-5 hours at room temperature with rotational shaking and then washed three times with wash buffer.
Samples (25 μL) were transferred to the antibody-coated MSD plate and incubated overnight at 4° C. After removal of the lysates, the plate was washed three times with wash buffer, and 25 μL of #5656S (Cell signaling; rabbit monoclonal) secondary antibody (diluted to 0.25 μg/mL in 0.05% Tween-20 in blocking buffer) was added to each well and incubated with shaking for 1 Hour at room temperature. Following incubation with the secondary antibody, the wells were rinsed with wash buffer after which 25 μL of goat anti-rabbit SULFO TAG secondary detection antibody (required aspect of the MSD system) (diluted to 0.25 μg/mL in 0.05% Tween-20 in blocking buffer) was added to each well and incubated with shaking for 1 hour at room temperature. After rinsing three times with wash buffer, 150 μL of read buffer T with surfactant (MSD) were added to each empty well, and the plate was imaged on a SI 6000 imager (MSD) according to manufacturers' instructions provided for 96- or 384-well plates.
With `Cc1cc(-c2cc3c(F)cc(C4=CCNCC4)cc3nn2)cc2cn(C)nc12` [Compound 157, 3-(2,7-dimethyl-2H-indazol-5-yl)-5-fluoro-7-(1,2,3,6-tetrahydropyridin-4-yl)cinnoline], the IC50 is ≤ 100 nM.

For `Cc1cn2nc(-c3cc4c(F)cc(C5=CCNCC5)cc4nn3)cc(C)c2n1` [Compound 167, 3-(2,8-dimethylimidazo[1,2-b]pyridazin-6-yl)-5-fluoro-7-(1,2,3,6-tetrahydropyridin-4-yl)cinnoline], the IC50 was ≤ 100 nM. Molecule `CCCc1cc(-c2cc(F)c3cc(C4CCN(CC)CC4)nnc3c2)nn2cc(C)nc12` [Compound 212, 3-(1-ethylpiperidin-4-yl)-5-fluoro-7-(2-methyl-8-propylimidazo[1,2-b]pyridazin-6-yl)cinnoline] came in with an IC50 of 100 to 500 nM.

Turning to `CCCN1CCC(c2cc3c(F)cc(-c4cc(C)c5nc(C)cn5n4)cc3nn2)CC1` [Compound 77, 7-(2,8-dimethylimidazo[1,2-b]pyridazin-6-yl)-5-fluoro-3-(l-propylpiperidin-4-yl)cinnoline], the IC50 is ≤ 100 nM. Consider `Cc1cn2nc(-c3cc(F)c4cc(C5CCNCC5)nnc4c3)cc(CO)c2n1` [Compound 107, {6-[5-fluoro-3-(piperidin-4-yl)cinnolin-7-yl]-2-methylimidazo[1,2-b]pyridazin-8-yl}methanol], for which the IC50 was ≤ 100 nM.

For `Cc1cc(-c2cc(F)c3cc(C4=CCNCC4)nnc3c2)cc2cn(C)nc12` [Compound 55, 7-(2,7-dimethyl-2H-indazol-5-yl)-5-fluoro-3-(1,2,3,6-tetrahydropyridin-4-yl)cinnoline], the IC50 was ≤ 100 nM.

Take `CC[C@H]1CC(c2cc3c(F)cc(-c4cc(C)c5nc(C)cn5n4)cc3nn2)C[C@H](CC)N1C` (stereo partly drawn) [Compound 131, 3-[(2S,6S)-2,6-diethyl-1-methylpiperidin-4-yl]-7-(2,8-dimethylimidazo[1,2-b]pyridazin-6-yl)-5-fluorocinnoline]: the IC50 was ≤ 100 nM. Turning to `CCN1CCC(c2cc3c(F)cc(-c4cc(CCO)c5nc(C)cn5n4)cc3nn2)CC1` [Compound 206], the IC50 is ≤ 100 nM. Under `CCN1CCC(c2cc(F)c3nc(-c4cc(F)c5nn(C)cc5c4)ncc3c2)CC1` [Compound 202, 6-(1-ethylpiperidin-4-yl)-8-fluoro-2-(7-fluoro-2-methyl-2H-indazol-5-yl)quinazoline] stands ≤ 100 nM; under `Cn1cc2cc(-c3nnc4cc(C5CCNCC5)ccc4n3)cc(C#N)c2n1` [Compound 26, 2-methyl-5-[7-(piperidin-4-yl)-1,2,4-benzotriazin-3-yl]-2H-indazole-7-carbonitrile], ≤ 100 nM. The same measure for `Cc1cn2cc(-c3nnc4cc(C5CCNCC5)ccc4n3)cc2c(C)n1` [Compound 28, 3-(1,3-dimethylpyrrolo[1,2-a]pyrazin-7-yl)-7-(piperidin-4-yl)-1,2,4-benzotriazine]: 1000 to 3000 nM. As for `Cn1cc2cc(-c3cc(F)c4nc(C5CCNCC5)nnc4c3)cc(F)c2n1` [Compound 32, 5-fluoro-7-(7-fluoro-2-methyl-2H-indazol-5-yl)-3-(piperidin-4-yl)-1,2,4-benzotriazine], the IC50 is ≤ 100 nM. On to `Cc1nc2c(C)cc(-c3cc(F)c4cc(C5CCNCC5)nnc4c3)nc2[nH]1` [Compound 126, 7-(2,7-dimethyl-3H-imidazo[4,5-b]pyridin-5-yl)-5-fluoro-3-(piperidin-4-yl)cinnoline], for which the IC50 is ≤ 100 nM. Under `Cc1cn2nc(-c3cc(F)c4cc(N5C[C@@H]6C[C@H]5CN6C)nnc4c3)cc(C)c2n1` [Compound 215, 7-(2,8-dimethylimidazo[1,2-b]pyridazin-6-yl)-5-fluoro-3-[(1S,4S)-5-methyl-2,5-diazabicyclo[2.2.1]heptan-2-yl]cinnoline] stands ≤ 100 nM; under `Cc1cn2nc(-c3cc(F)c4nc(C5CCN(C)CC5)nnc4c3)cc(C)c2n1` [Compound 69, 7-(2,8-dimethylimidazo[1,2-b]pyridazin-6-yl)-5-fluoro-3-(1-methylpiperidin-4-yl)-1,2,4-benzotriazine], ≤ 100 nM; under `Cc1cn2nc(-c3cc(F)c4cc(C5CCN(CCn6cnc7ccccc76)CC5)nnc4c3)cc(C)c2n1` [Compound 159, 3-{1-[2-(1H-benzimidazol-1-yl)ethyl]piperidin-4-yl}-7-(2,8-dimethylimidazo[1,2-b]pyridazin-6-yl)-5-fluorocinnoline], ≤ 100 nM. As for `Cc1cn2cc(-c3cc4c(F)cc(C5=CCNCC5)cc4nn3)cc(C)c2n1` [Compound 156, 3-(2,8-dimethylimidazo[1,2-a]pyridin-6-yl)-5-fluoro-7-(1,2,3,6-tetrahydropyridin-4-yl)cinnoline], the IC50 is ≤ 100 nM. The same measure for `Cc1cn2nc(-c3cc(F)c4cc(C5C[C@@H](C)N(C)[C@@H](C)C5)nnc4c3)cc(C)c2n1` (stereo partly drawn) [Compound 161]: ≤ 100 nM; for `Cc1cn2nc(-c3cc(F)c4cc(C5CCNCC5)nnc4c3)cc(OCCCN(C)C)c2n1` [Compound 139, 3-({6-[5-fluoro-3-(piperidin-4-yl)cinnolin-7-yl]-2-methylimidazo[1,2-b]pyridazin-8-yl}oxy)-N,N-dimethylpropan-1-amine]: ≤ 100 nM. The same measure for `Cc1cn2nc(-c3cc(F)c4nc(C5CCNCC5)cnc4c3)cc(C)c2n1` [Compound 82, 6-(2,8-dimethylimidazo[1,2-b]pyridazin-6-yl)-8-fluoro-2-(piperidin-4-yl)quinoxaline]: ≤ 100 nM. The same measure for `Cc1cc(-c2cc3c(F)cc(C4=CCCNCC4)cc3nn2)cc2cn(C)nc12` [Compound 198, 3-(2,7-dimethyl-2H-indazol-5-yl)-5-fluoro-7-(2,3,6,7-tetrahydro-1H-azepin-4-yl)cinnoline]: 100 to 500 nM; for `Cc1cc(-c2ccc3nc(C4=CC(C)(C)NC(C)(C)C4)ccc3c2)cc2cn(C)nc12` [Compound 13, 6-(2,7-dimethyl-2H-indazol-5-yl)-2-(2,2,6,6-tetramethyl-1,2,3,6-tetrahydropyridin-4-yl)quinoline]: 1000 to 3000 nM. As for `Cc1cn2cc(-c3nnc4cc(C5CC6CCC(C5)N6)ccc4n3)cc(F)c2n1` (stereo not drawn) [Compound 56, 7-(8-azabicyclo[3.2.1]oct-3-yl)-3-(8-fluoro-2-methylimidazo[1,2-a]pyridin-6-yl)-1,2,4-benzotriazine], the IC50 is ≤ 100 nM. The same measure for `Cc1cn2nc(-c3cc(F)c4cc(C5CCCNCC5)nnc4c3)cc(C)c2n1` (stereo not drawn) [Compound 129, 3-(azepan-4-yl)-7-(2,8-dimethylimidazo[1,2-b]pyridazin-6-yl)-5-fluorocinnoline]: ≤ 100 nM. The same measure for `Cc1cn2nc(-c3cc(F)c4cc(C5CCNCC5)nnc4c3)cc(CC#N)c2n1` [Compound 187, {6-[5-fluoro-3-(piperidin-4-yl)cinnolin-7-yl]-2-methylimidazo[1,2-b]pyridazin-8-yl}acetonitrile]: ≤ 100 nM; for `Cc1cc(-c2cc(F)c3nc(C4CCNCC4)nnc3c2)nc2cn(C)nc12` [Compound 66, 7-(2,7-dimethyl-2H-pyrazolo[4,3-b]pyridin-5-yl)-5-fluoro-3-(piperidin-4-yl)-1,2,4-benzotriazine]: ≤ 100 nM; for `Cn1cc2cc(-c3cc(F)c4cc(C5CCNCC5)nnc4c3)cc(F)c2n1` [Compound 96, 5-fluoro-7-(7-fluoro-2-methyl-2H-indazol-5-yl)-3-(piperidin-4-yl)cinnoline]: ≤ 100 nM.
